In patent US20110144079A1, “ANTIMICROBIAL SYSTEM” (priority 2008, published 2011):
Read-outs that look alike come from different tables or passages of the source.

Assays:
[1] = tested on: S. aureus PIII; assay: Biofilm assay (Calgary Biofilm Device), MBEC; assay type: cell-based; conditions: S. aureus PIII 24 h biofilm, 24 h challenge
Protocol: (§1) Biofilms of each test organism were grown in the Calgary Biofilm Device (commercially available as the MBEC Assay™ for Physiology & Genetics, Innovotech Inc., Edmonton, Alberta, Canada). The device, a micro-titre plated based assay, consists of two parts; a microtitre plate containing the inoculated test medium and a polystyrene lid with 96 identical pegs on which the microbial biofilm forms under gyrorotary incubation. The biofilm assay was conducted according to the MBEC™ assay protocol as supplied by the manufacturer, with slight modifications. Inocula of each test organism were prepared in MHB as described above and adjusted to provide a final inoculum density of ˜10^7 CFU ml^−1 (as confirmed by viable count). 150 μl of the inoculated media was transferred to each well of the 96-well microtitre plate and the assay plate lid, bearing 96 pegs was placed into the microtitre plate. The MBEC assay plates were placed in a gyrorotary incubator (37° C., 95% relative humidity) for 24 h to permit growth and comparison of 24 h biofilms of each test strain. Positive and negative growth controls were included in each plate (6 replicates). Initial and 24 h planktonic viable counts were measured, as were 24 h biofilm counts, expressed as CFU peg^−1, according to manufacturers instructions. After 24 h, the peg lid of the MBEC assay plate was gently rinsed three times. After rinsing, the peg lid of the MBEC assay was transferred to a ‘challenge’ plate. Serial dilutions of each imidazolium salt were prepared in 200 μl of MHB containing various concentrations of IL in each well. Positive growth control and sterility control were included in each assay plate. […] Biofilms were dislodged into recovery media by sonication for 5 minutes and the peg lid discarded. The recovery plate is incubated overnight and visually checked after 24 h for turbidity. In addition, optical density measurements for each plate were recorded at 550 nm. Clear wells were taken as evidence of biofilm eradication and the MBEC value was assigned as the lowest concentration at which no growth was observed after 24 h incubation. Plates were incubated for a further 24 h to confirm biofilm eradication concentrations.

[2] = tested on: B. cereus; assay: Biofilm assay (Calgary Biofilm Device), MBEC; assay type: cell-based; conditions: B. cereus 24 h biofilm, 24 h challenge
Protocol: as §1

[3] = tested on: P. mirabilis NCTC 12442; assay: Biofilm assay (Calgary Biofilm Device), MBEC; assay type: cell-based; conditions: P. mirabilis NCTC 12442 24 h biofilm, 24 h challenge
Protocol: as §1

[4] = tested on: S. epidermidis ATCC 35984; assay: Biofilm assay (Calgary Biofilm Device), MBEC; assay type: cell-based; conditions: for MBEC: S. epidermidis ATCC 35984 24 h biofilm, 24 h challenge
Protocol: as §1

[5] = tested on: C. tropicalis NCTC 7393; assay: Biofilm assay (Calgary Biofilm Device), MBEC; assay type: cell-based; conditions: C. tropicalis NCTC 7393 24 h biofilm, 24 h challenge
Protocol: as §1

[6] = tested on: K. aerogenes NCTC 7427; assay: Biofilm assay (Calgary Biofilm Device), MBEC; assay type: cell-based; conditions: K. aerogenes NCTC 7427 24 h biofilm, 24 h challenge
Protocol: as §1

[7] = tested on: E. coli NCTC 8196; assay: Biofilm assay (Calgary Biofilm Device), MBEC; assay type: cell-based; conditions: E. coli NCTC 8196 24 h biofilm, 24 h challenge
Protocol: as §1

[8] = tested on: E-MRSA 15; assay: Biofilm assay (Calgary Biofilm Device), MBEC; assay type: cell-based; conditions: E-MRSA 15 24 h biofilm, 24 h challenge
Protocol: as §1

[9] = tested on: P. aeruginosa PA01; assay: Biofilm assay (Calgary Biofilm Device), MBEC; assay type: cell-based; conditions: P. aeruginosa PA01 24 h biofilm, 24 h challenge
Protocol: as §1

[10] = tested on: B. cereus; assay: Broth microdilution MIC/MBC; assay type: cell-based; conditions: 24 h at 37° C.
Protocol: (§2) Broth microdilution tests were performed according to NCCLS guidelines. Serial two-fold dilutions of each imidazolium salt (from an original working solution which had been 0.22 μm sterile filtered) in Mueller-Hinton Broth (MHB) (100 μl) were prepared in 96-well micro-titre plates over the range 0.0000625-1% w/v. The inoculum to be tested was prepared by adjusting the turbidity of an actively overnight growing broth culture in MHB to an optical density at 550 nm equivalent to 1×10^8 CFU/ml. The suspension was further diluted to provide a final inoculum density of 2×10^5 CFU/ml in MHB as verified by total viable count. The inoculum to be tested (100 μl, 2×10^5 CFU ml^−1) was added to each well of the microdilution trays which were incubated aerobically for 24 h at 37° C. Positive and negative growth controls were included in every assay (6 replicates). After determining the MICs, minimum bactericidal concentrations (MBCs) were determined by spreading 20 μl of suspension from wells showing no growth onto MHA plates, which were then incubated for 24 h and examined for 99.9% killing.

[11] = tested on: S. aureus ATCC 29213; assay: Broth microdilution MIC/MBC; assay type: cell-based; conditions: for MBC: S. aureus ATCC 29213, 99.9% killing; for MIC: S. aureus ATCC 29213, 24 h at 37° C.
Protocol: as §2

[12] = tested on: P. mirabilis NCTC 12442; assay: Broth microdilution MIC/MBC; assay type: cell-based; conditions: for MIC: P. mirabilis NCTC 12442, 24 h at 37° C.
Protocol: as §2

[13] = tested on: S. epidermidis ATCC 35984; assay: Broth microdilution MIC/MBC; assay type: cell-based; conditions: for MBC: S. epidermidis ATCC 35984, 99.9% killing; for MIC: S. epidermidis ATCC 35984, 24 h at 37° C.
Protocol: as §2

[14] = tested on: C. tropicalis NCTC 7393; assay: Broth microdilution MIC/MBC; assay type: cell-based; conditions: for MBC: C. tropicalis NCTC 7393, 99.9% killing; for MIC: C. tropicalis NCTC 7393, 24 h at 37° C.
Protocol: as §2

[15] = tested on: K. aerogenes NCTC 7427; assay: Broth microdilution MIC/MBC; assay type: cell-based; conditions: for MBC: K. aerogenes NCTC 7427, 99.9% killing; for MIC: K. aerogenes NCTC 7427, 24 h at 37° C.
Protocol: as §2

[16] = tested on: E. coli NCTC 8196; assay: Broth microdilution MIC/MBC; assay type: cell-based; conditions: for MBC: E. coli NCTC 8196, 99.9% killing; for MIC: E. coli NCTC 8196, 24 h at 37° C.
Protocol: as §2

[17] = tested on: S. epidermidis ATCC 12228; assay: Broth microdilution MIC/MBC; assay type: cell-based; conditions: for MBC: S. epidermidis ATCC 12228, 99.9% killing; for MIC: S. epidermidis ATCC 12228, 24 h at 37° C.
Protocol: as §2

[18] = tested on: E-MRSA 15; assay: Broth microdilution MIC/MBC; assay type: cell-based; conditions: for MBC: E-MRSA 15, 99.9% killing; for MIC: E-MRSA 15, 24 h at 37° C.
Protocol: as §2

[19] = tested on: P. aeruginosa PA01; assay: Broth microdilution MIC/MBC; assay type: cell-based; conditions: for MIC: P. aeruginosa PA01, 24 h at 37° C., read-out: MIC
Protocol: as §2

[20] = tested on: S. aureus PIII; assay: Broth microdilution MIC; assay type: cell-based
Protocol: as §2

[21] = tested on: S. aureus ATCC 29213; assay: Biofilm assay (Calgary Biofilm Device), MBEC; assay type: cell-based; conditions: S. aureus ATCC 29213 24 h biofilm, 24 h challenge
Protocol: as §1

[22] = tested on: B. cenocepacia J2315; assay: Biofilm assay (Calgary Biofilm Device), MBEC; assay type: cell-based; conditions: B. cenocepacia J2315 24 h biofilm, 24 h challenge
Protocol: as §1

[23] = tested on: E. coli PIII; assay: Biofilm assay (Calgary Biofilm Device), MBEC; assay type: cell-based; conditions: E. coli PIII 24 h biofilm, 24 h challenge
Protocol: as §1

[24] = tested on: MRSA; assay: Biofilm assay (Calgary Biofilm Device), MBEC; assay type: cell-based, methicillin-resistant S. aureus
Protocol: as §1

[25] = tested on: B. cenocepacia J2315; assay: Broth microdilution MIC/MBC; assay type: cell-based
Protocol: as §2

[26] = tested on: MRSA; assay: Broth microdilution MIC/MBC; assay type: cell-based, methicillin-resistant S. aureus; conditions: for MIC: 24 h at 37° C.
Protocol: as §2

[27] = tested on: MRSA; assay: Zone of inhibition on MRSA-seeded agar culture plates; assay type: cell-based, methicillin-resistant S. aureus; conditions: 40 μL of ionic liquid applied to MRSA-seeded agar culture plates
From the text: As used herein, CyMIMCI, refers to 1-alkyl-3-methyl-imidazolium chloride ionic liquids, wherein the alkyl group is a straight chain alkyl group having y carbon atoms.

[28] = tested on: E. coli PIII; assay: Broth microdilution MIC; assay type: cell-based
Protocol: as §2

[29] = tested on: S. epidermidis ATCC 12228; assay: Biofilm assay (Calgary Biofilm Device), MBEC; assay type: cell-based
Protocol: as §1

[30] = Staphylococcus epidermidis, ATCC12228
[31] = Pseudomonas aeruginosa, PA01, 24 h

SMILES | MBEC [2] [µM] | MBEC [3] [µM] | MBEC [4] [µM] | MBEC [5] [µM] | MBEC [6] [µM] | MBEC [8] [µM] | MBEC [9] [µM] | MBC [11] [µM] | MIC [11] [µM] | MIC [12] [µM] | MBC [13] [µM] | MIC [13] [µM] | MBC [14] [µM] | MIC [14] [µM] | MBC [15] [µM] | MIC [15] [µM] | MBC [16] [µM] | MIC [16] [µM] | MBC [17] [µM] | MIC [17] [µM] | other results
CCCCCCCCCCCCCCCC[n+]1cccc2ccccc21.[Br-] [1-alkyl-3-quinolinium bromides 16] | 1123.84 | 2247.68 | 561.92 | 561.92 | 561.92 | 1123.84 | 1123.84 | 70.24 | 70.24 | 70.24 | 35.12 | 35.12 | 70.24 | 35.12 | 35.12 | 35.12 | 70.24 | 35.12 | 35.12 | 35.12 | MBEC [1]: 1123.84 µM; MBEC [7]: 561.92 µM; MIC [10]: 140.48 µM; MBC [18]: 70.24 µM; MIC [18]: 35.12 µM; MIC [19]: 70.24 µM; MIC [20]: 70.24 µM
CCCCCCCCn1cc[n+](C)c1.[Cl-] [C8MIMCl] | – | 43331 | 10833 | >43331 | 43331 | 2708 | 21666 | >1444 | 722 | 1444 | 1444 | 722 | >1444 | 1444 | >1444 | 1444 | 1444 | 722 | 1444 | 361 | MBEC [21]: 2708 µM; percent weight to volume of ionic liquid that corresponds to the MBEC value ([4]; S. epidermidis ATCC 35984 biofilm): (0.25) % w/v; MBEC [22]: 43331 µM; MBEC [23]: 21666 µM; MBEC ([24]; MRSA 24 h biofilm, 24 h challenge): 21666 µM; percent weight to volume of ionic liquid that corresponds to the MBEC value ([24]; MRSA biofilm): (0.5) % w/v; MBC ([12]; P. mirabilis NCTC 12442, 99.9% killing): >1444 µM; MBC ([25]; B. cenocepacia J2315, 99.9% killing): >1444 µM; MIC ([25]; B. cenocepacia J2315, 24 h at 37° C.): >1444 µM; MBC [18]: >1444 µM; MIC [18]: 722 µM; MBC ([19]; P. aeruginosa PA01, 99.9% killing): >1444 µM; MBC ([26]; 99.9% killing): >1444 µM; MIC [26]: 1444 µM; Zone Of Inhibition Radius [27]: 12 mm; MIC [28]: 722 µM
CCCCCCCCCCCCCC[n+]1cccc2cc(C)ccc21.[Br-] [IL3, N-tetradecyl-6-methylquinolinium bromide] | – | – | – | – | – | – | – | – | – | – | – | – | – | – | – | – | – | – | – | – | MBEC [29]: 8.2 µM; MIC ([10]; Bacillus cereus): 2.9 µM; MIC ([12]; Proteus mirabilis, NCTC12442): 92.9 µM; MIC ([16]; Escherichia coli, NCTC8196): 11.6 µM; MIC [17, 30]: 8.2 µM; MIC [19, 31]: 23.2 µM; MIC ([26]; Staphylococcus aureus): 23.2 µM
CCCCCCCCCCCCCC[n+]1ccc2ccccc2c1.[Br-] [IL4, N-tetradecylisoquinolinium bromide] | 7.9 | – | 31.5 | – | 63.4 | – | – | – | – | – | – | – | – | – | – | – | – | – | – | – | MBEC [21]: 126.9 µM; MBEC [29]: 31.7 µM; MIC ([10]; Bacillus cereus): 3 µM; MIC ([11]; Staphylococcus aureus, ATCC29213): 7.9 µM; MIC ([12]; Proteus mirabilis, NCTC12442): 193 µM; MIC ([13]; Staphylococcus epidermidis, ATCC35984, 24 h): 7.9 µM; MIC ([15]; Klebsiella aerogenes, NCTC7427): 7.9 µM; MIC ([16]; Escherichia coli, NCTC8196): 24.1 µM; MIC [17, 30]: 7.9 µM; MIC [19, 31]: 48.2 µM; MIC ([26]; Staphylococcus aureus): 24.1 µM
